Measured values as given in paper PMC9388626, “STUB1 is an intracellular checkpoint for interferon gamma sensing” (Scientific Reports, 2022).
One block for each molecule: values may come before it. Peptide text beside a SMILES is read from it.

How the values were obtained:
STUB1 (aa25–aa153) [1] = target: T1, STUB1 (aa25–aa153) (Homo sapiens, UniProt Q9UNE7); experiment: Isothermal titration calorimetry; assay type: binding; settings: ITC
T1 sequence (Q9UNE7 25-153): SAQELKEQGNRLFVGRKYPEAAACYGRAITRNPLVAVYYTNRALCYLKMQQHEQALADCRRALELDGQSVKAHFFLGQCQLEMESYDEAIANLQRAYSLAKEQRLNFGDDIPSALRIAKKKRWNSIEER
Experimental: Recombinant STUB1 protein, spanning aa25-aa153, was produced by Nanyang Technological University protein production platform. The purity and identity of the protein was confirmed by mass spectrometry and SDS-PAGE. Synthetic peptides, in a form of N-acetylation and free C-terminal carboxylic acid, were custom made by Chinese Peptide Company (CPC). The purity and identity of the peptides were confirmed by analytic HPLC (≥ 95% purity) and mass spectrometry. Peptides are dissolved in neat DMSO as 10 mM stock solution and diluted thereof for subsequent experiments.
Recombinant STUB1 protein (aa25-aa153) was dialyzed overnight with Slide-A-Lyzer cassette (7 K MWCO, Thermo Scientific, #66373) in 1 L of dialysis buffer (PBS, pH 7.4, 0.5 mM TCEP). The dialyzed protein solution was centrifuged at 15,000 rpm for 10 min at 4 °C to remove potential precipiates. The protein was diluted to 20 µM using the dialysis buffer, followed by the additon of DMSO spike-in (2% final concentration). The synthetic peptides (10 mM in DMSO) were diluted to 200 µM with the dialysis buffer (2% final DMSO concentration). ITC measurements were performed at 25 °C using a Microcal PEAQ-ITC (Malvern Panalytical Inc). An initial injection of 0.4 µl followed by a total of 39 injections of peptide solution (1 µl, 200 µM) were added at an intervals of 2 min into the protein solution (20 µM) while stirring at 750 rpm. The data point produced by the first injection was discarded prior to curve fitting in order to account for the diffusion effect during the equilibration process. The experimental data were fitted to a non-interacting one-site binding model using the analysis software supplied by Microcal, with ΔH (enthalpy change), Ka (association constant) and N (number of binding sites per monomer) as adjustable parameters. Free energy change (ΔG) and entropy contributions (TΔS) were determined from the standard equation: ΔG = ΔH − TΔS = − RT lnKa, where T is the absolute temperature and R = 1.987 cal mol^−1 K^−1.

STUB1 (aa25-aa153) = experiment: Thermal shift assay (SYPRO Orange); assay type: binding; settings: 100 µM peptide, 10 µM protein, relative to DMSO vehicle, mean ± s.d. from three independent experiments
Text: The SYPRO Orange fluorescent dye (Invitrogen) was used to measure the thermal stability of recombinant STUB1 protein (aa25-aa153). With increasing temperature, binding of the dye molecule to the hydrophobic region of the denatured STUB1 results in an increase in the fluorescence intensity. The midpoint of this transition is termed the Tm. Binding of a ligand, such as peptide, stabilizes the protein and results in a melting temperature shift (ΔTm), which correlates with the binding affinity of the ligand. The thermal shift assay was conducted in a CFX96 real-time PCR detection system (Bio-Rad). A total of 50 µl mixture containing 3.125 × SYPRO Orange (Invitrogen, diluted from 5000 × DMSO stock), 100 µM peptide of interest, and 10 µM protein was prepared in a PCR 8-well strip tube. The samples were heated from 25 to 95 °C in 0.5 °C increment each cycle. The holding time for each cycle is 5 s, after which the fluorescence intensity was measured in Channel 2 (HEX) with Ex/Em: 515–535/560–580 nm. Each independent experiment was performed in technical duplicates.

STUB1 (aa25–aa153) [2] = target: T1, STUB1 (aa25–aa153); experiment: Competitive fluorescence polarization assay; assay type: binding; settings: 15 nM 5-FAM-[…] tracer, 1 µM STUB1, PBS pH 7.4, 0.01% Tween 20, room temperature, 30 min; mean ± s.e., six replicates from two independent experiments
Experimental: The assays were performed at room temperature using assay buffer (PBS, pH 7.4, 0.01% v/v Tween 20) and black 384-well non-binding polystyrene microplate (Greiner Bio-one, #784900). The peptide of interest was first diluted (10-point, threefold serial dilution) with the assay buffer on the microplate to have a volume of 10 µl in each well. This was followed by the addition of 10 µl mixture containing 5-FAM-[…]-CO2H (30 nM) and the recombinant STUB1 protein (2 µM). The final assay solution (20 µl) contains 5-FAM-labeled tracer peptide (15 nM), protein (1 µM) and peptide of interest (5 nM to 100 µM). After 30 min incubation in the dark, the microplate was read with TECAN Infinite M1000 PRO (Ex: 470 nm, Em: 520 nm, bandwidth: 5 nm, G-factor = 1.05, gain: optimal, #flashes = 10, settle time = 0 ms, z position: calculated from well). Value of polarization (mP) = 1000 × (G × intensity‖ − intensity ⊥ )/(G × intensity‖ + intensity ⊥ ). Half maximal inhibitory concentration (IC50) was determined by fitting the curve using 4-parameter sigmoidal function in GraphPad Prism. Each independent experiment was performed in technical triplicates.

STUB1 [3] = experiment: Co-immunoprecipitation of FLAG-mCherry2-peptide and STUB1; assay type: binding, murine; settings: spiked into co-IP mixture, room temperature, 4 h
Experimental: B16-F10 cells stably expressing the biologic were harvested, rinsed with PBS, and lysed with chilled cell lysis buffer (Cell Signaling Technology, #9803) supplemented with Halt protease inhibitor cocktail (Life Technologies, #78430) and phosphatase inhibitor (Sigma-Aldrich, # 4906837001). Cellular lysates were clarified by centrifugation at 15,000 rpm at 4 °C for 15 min. Protein concentration was determined using BCA protein assay kit (Pierce, #23225). For each sample of the co-immunoprecipitation (co-IP), 20 µl of anti-FLAG magnetic beads (Sigma-Aldrich, M8823) was rinsed twice with 0.2 ml PBS, followed by addition of 500 µl diluted cellular lysate (60 µg, 0.12 µg µl^−1). For competitive inhibition, synthetic peptide (SIWWPD) was added into the co-IP mixture. The resulting mixture was rotated at room temperature for 4 h, after which the beads were rinsed with 3 × 0.5 ml PBS to remove the unbound proteins. Bound protein complexes were directly eluted with a 20 µl solution of LDS sample buffer (Life Technologies, NP0008) supplemented with sample reducing agent (Life Technologies, NP0009), followed by heating at 70 °C for 10 min. […] Blotting was similar to the Western Blot section described above. Primary antibodies used were: STUB1/CHIP (Cell Signaling Technology, #2080, 1:1000 dilution), FLAG (Sigma-Aldrich, F1804, 1:1000 dilution). […]

STUB1 [4] = tested on: STUB1; set-up: method as in PMID 31320752; settings: cited from earlier work
[5] = target: T2, Recombinant STUB1 protein, spanning aa25-aa153 (UniProt Q9UNE7 25-153); experiment: FP
T2 chain: T1 sequence (Q9UNE7 25-153)

[6] = target: T2, Recombinant STUB1 protein, spanning …; experiment: ITC
[7] = target: T3, Recombinant STUB1 protein, spanning aa25-aa153 (UniProt Q9UNE7 25-153); experiment: ITC; peptide (200 µM) injected into STUB1 aa25-aa153 (20 µM); 25 °C; PBS pH 7.4, 0.5 mM TCEP, 2% DMSO; one-site binding model; settings: both partners purified
T3 construct: STUB1 (E3 ligase, also STUB1/CHIP), residues 25-153; also called STUB1 (aa25–aa153); CHIP; source: recombinant, produced by Nanyang Technological University protein production platform; purity and identity confirmed by mass spectrometry and SDS-PAGE
T3 sequence (looked up): T1 sequence (Q9UNE7 25-153)

[8] = target: T3, Recombinant STUB1 protein, spanning …; experiment: thermal shift assay; SYPRO Orange; 100 µM peptide, 10 µM STUB1 aa25-aa153; heated from 25 to 95 °C in 0.5 °C increments; settings: both partners purified
[9] = target: T3, Recombinant STUB1 protein, spanning …; experiment: fluorescence polarisation; competitive; 15 nM tracer 5-FAM-…, 1 µM STUB1 aa25-aa153, peptide of interest 5 nM to 100 µM; room temperature; PBS pH 7.4, 0.01% v/v Tween 20; 30 min incubation; settings: both partners purified

Molecule: CC[C@H](C)[C@H](NC(=O)[C@H](CO)NC(C)=O)C(=O)N[C@@H](Cc1c[nH]c2ccccc12)C(=O)N[C@@H](Cc1c[nH]c2ccccc12)C(=O)N[C@@H](Cc1c[nH]cn1)C(=O)N[C@@H](CCCNC(=N)N)C(=O)O [SIWWHR] (Ac-SIWWHR-OH)
Binding to STUB1 (STUB1 (aa25–aa153) [1]): non-binding
Kd (STUB1 (aa25–aa153) [1]; PBS pH 7.4, 0.5 mM TCEP, 2% DMSO, 25 °C, 200 µM peptide into 20 µM protein): > 10000 nM
ΔTm (STUB1 (aa25-aa153)): -0.1 ± 0.2 °C
IC50 (STUB1 (aa25–aa153) [2]): > 100000 nM

Molecule: CC[C@H](C)[C@H](NC(=O)[C@H](CO)NC(C)=O)C(=O)N[C@@H](Cc1c[nH]c2ccccc12)C(=O)N[C@@H](Cc1c[nH]c2ccccc12)C(=O)N1CCC[C@H]1C(=O)N[C@@H](CC(=O)O)C(=O)O [SIWWPD, reference compound] (Ac-SIWWPD-OH)
Binding to STUB1 (STUB1 (aa25–aa153) [1]): bound strongly to the protein
ΔTm (STUB1 (aa25-aa153)): 18.3 ± 0.1 °C
Reversal of co-immunoprecipitation by synthetic peptide (STUB1 [3]): completely reversible in a dose-dependent manner
Blocking of STUB1 interaction with HSPA8 (STUB1 [4]): capable of blocking the interaction of STUB1 with HSPA8

Second part, led by results:

IC50 [5]: 2700 nM
Kd [6]: 2190 nM
Molecule: Ac-TIEEVD-OH

Kd [7]: 14 ± 2 nM
IC50 [9]: 340 nM
B1: synthetic inhibitory peptide SIWWPD (peptide)
peptide: Ac-SIWWPD-OH
notes: source: synthetic peptide, custom made by Chinese Peptide Company (CPC)
ΔTm [8]: 18.3 °C
